{"source": "patent US10172306B2", "about": "“Production of ingenol, ingenol esters and/or tiglian-3-one derivatives by euphorbiaceae plant cell suspension cultures” (Phyton Holdings, LLC, priority 2015, dated 2019)", "tested_on": "suspension culture of E. peplus", "assay": "Precursor feeding of E. peplus suspension culture with angelic acid: cell growth", "type": "cell-based, Euphorbia peplus", "conditions": "0.5 mM angelic acid added to E. peplus suspension culture, cultivated for 7-14 days; sterile water as negative control", "procedure": "Further increase of Ingenol-3-angelate was achieved using angelic acid as a precursor. A suspension culture of E. peplus, newly transferred or up to 14 days old, was supplemented with 0.5 mM angelic acid. […] The same amount of sterile water was used as a negative control. After addition of angelic acid, the culture was cultivated for 7-14 days (see FIG. 6).", "data": [{"smiles": "C/C=C(/C)C(=O)O", "note": "[angelic acid, 2-methyl-2(Z)-butenoic acid]", "values": [{"measurement": "influence on cell growth", "result": "no influence on cell growth"}]}]}
